Reference: US7812016B2, “Naphthyridine integrase inhibitors” (SmithKline Beecham Corporation, priority 2003, dated 2010)

Tested on: HIV-1 (strain IIIB)
Experiment: MT4 Cell Assay (antiviral HIV activity, propidium iodide or MTS readout)
Format: cell-based
Settings: Human immunodeficiency virus 1, IIIB, expected range for the control and standard, tested in every assay, MT4 cells
Procedure: Antiviral HIV activity and compound-induced cytotoxicity were measured in parallel by means of a propidium iodide based procedure in the human T-cell lymphotropic virus transformed cell line MT4. Aliquots of the test compounds were serially diluted in medium (RPMI 1640, 10% fetal calf serum (FCS), and gentamycin) in 96-well plates (Costar 3598) using a Cetus Pro/Pette. Exponentially growing MT4 cells were harvested and centrifuged at 1000 rpm for 10 min in a Jouan centrifuge (model CR 4 12). Cell pellets were resuspended in fresh medium (RPMI 1640, 20% FCS, 20% IL-2, and gentamycin) to a density of 5×10^5 cells/ml. Cell aliquots were infected by the addition of HIV-1 (strain IIIB) diluted to give a viral multiplicity of infection of 100× TCID50. […]
A. For propidium iodide readout, 27 μl of 5% Nonidet40 was added to each well of the incubation plate. […] The plates were analyzed in an automated assay instrument (Screen Machine, Idexx Laboratories). […]
B. For MTS readout, 20 μl CellTiter 96 AQ One Solution reagent (Promega #G3582) was added to each well. At 75 minutes following the addition of MTS reagent, absobance was read at 492 nm using a Tecan Sunrise 96-well plate reader. […]
For each assay plate, the results (relative fluorescence units, rfU, or OD values) of wells containing uninfected cells or infected cells with no compound were averaged, respectively. […]

- IC50: 40 to 120 nM
Structure (SMILES): Cc1cn([C@H]2C[C@H](N=[N+]=[N-])[C@@H](CO)O2)c(=O)[nH]c1=O [3′-azido-3′-deoxythymidine]
